# Results reported in publication PMC3921447, “Homologous and heterologous desensitization of guanylyl cyclase-B signaling in GH3 somatolactotropes” (Cell and Tissue Research, 2013).
# Legend:
# [1] = biological target: T1, GC-B (Rattus norvegicus, UniProt P16067); test: Effect of protein phosphatase inhibitors on rapid homologous desensitization of CNP-stimulated cGMP accumulation in GH3 cells; format: cell-based; details: 100 nM CNP, 1 mM IBMX; 30 min pre-treatment with 100 nM OA, 1 nM cypermethrin or 1 mM Na3VO4; control = CNP alone; n = 3
# T1 construct: rapid homologous desensitization of endogenous GC-B receptors in GH3 cells; endogenous in cells; host or cells: GH3 rat somatolactotrope cells
# T1 sequence (P16067 17-1047): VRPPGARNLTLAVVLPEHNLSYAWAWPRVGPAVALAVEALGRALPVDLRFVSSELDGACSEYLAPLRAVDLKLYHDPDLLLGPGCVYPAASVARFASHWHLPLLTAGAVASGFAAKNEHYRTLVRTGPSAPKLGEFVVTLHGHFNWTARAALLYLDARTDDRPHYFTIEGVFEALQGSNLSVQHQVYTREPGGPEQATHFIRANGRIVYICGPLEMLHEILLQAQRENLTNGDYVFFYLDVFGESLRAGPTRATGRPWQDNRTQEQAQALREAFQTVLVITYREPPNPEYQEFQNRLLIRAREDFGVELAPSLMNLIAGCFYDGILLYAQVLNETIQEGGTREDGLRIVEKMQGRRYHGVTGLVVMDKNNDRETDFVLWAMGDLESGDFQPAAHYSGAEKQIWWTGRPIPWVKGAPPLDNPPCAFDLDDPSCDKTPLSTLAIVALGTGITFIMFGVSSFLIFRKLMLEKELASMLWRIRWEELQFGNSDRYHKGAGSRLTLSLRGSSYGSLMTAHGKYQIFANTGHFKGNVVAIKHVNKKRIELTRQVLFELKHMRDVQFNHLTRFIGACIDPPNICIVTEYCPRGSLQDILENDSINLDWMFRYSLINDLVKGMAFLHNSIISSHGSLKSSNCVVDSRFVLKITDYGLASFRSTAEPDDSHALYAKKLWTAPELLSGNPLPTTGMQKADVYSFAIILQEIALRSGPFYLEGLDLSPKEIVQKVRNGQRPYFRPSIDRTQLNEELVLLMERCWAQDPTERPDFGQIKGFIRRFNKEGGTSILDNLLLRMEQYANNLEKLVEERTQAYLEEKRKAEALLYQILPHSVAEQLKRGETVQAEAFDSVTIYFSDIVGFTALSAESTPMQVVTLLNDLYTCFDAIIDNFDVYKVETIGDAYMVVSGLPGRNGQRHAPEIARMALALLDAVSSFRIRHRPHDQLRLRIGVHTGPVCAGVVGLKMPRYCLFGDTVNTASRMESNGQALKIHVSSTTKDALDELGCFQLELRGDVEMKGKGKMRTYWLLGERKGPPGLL
# Protocol: (§1) Fig. 2 Rapid homologous desensitization of CNP-dependent but not ANP-dependent cGMP accumulation in GH3 cells. Cells were treated with PSS containing either (a) 100 nM CNP or (b) 100 nM ANP for 0–15 min in the presence of 1 mM IBMX.
# Similar short time-courses were performed, except that some cells were pre-treated with 100 nM okadaic acid (OA, a PP2A inhibitor), 1 nM cypermethrin (a PP2B inhibitor), or 1 mM sodium orthovanadate (Na3VO4, a protein tyrosine phosphatase inhibitor) for 30 min prior to CNP treatment (Fig. 2c).
# [2] = biological target: T1, GC-B; test: CNP time-course of total cGMP accumulation (rapid homologous desensitization) in GH3 cells; format: cell-based; details: 100 nM CNP, 1 mM IBMX, n = 3 in triplicate
# Protocol: To characterize the activity of these receptors further , a series of experiments was performed to examine mechanisms of receptor desensitization. Total cGMP accumulation was measured to determine the changes in activity of the GC-A and GC-B receptors when treated over a short time-course with their native ligands, namely ANP and CNP, respectively. GH3 cells were plated at 3 × 10^5 cells/well in a 24-well plate, treated with 100 nM of either ANP or CNP in the presence of the phosphodiesterase inhibitor IBMX (1 mM) for 0 to 15 min and assayed for total cGMP concentration (Fig. 2a, b). […] In another experiment performed with 100 nM ANP instead of CNP, a rapid increase in cGMP accumulation (7.91 ± 0.9 to 164.31 ± 9.1pmol/ml per milligram protein) occurred between 0 and 5 min.
# as §1
# [3] = test system: GC-A and GC-B receptors; details: prolonged exposure; ref Fan et al. [2005]; Dickey et al. [2011]; cited from earlier work
# Source text: Pharmacological regulation of the GC-B receptor has been elegantly described through many studies by Potter and Hunter ([1998a], [1999]) who have shown that dephosphorylation of specific serine and threonine residues of the GC-B receptor leads to rapid homologous desensitization. In keeping with the extensive literature describing the regulation of GC-A receptors (Potter et al. [2006]), enhancement of protein kinase C (PKC) activity leads to heterologous desensitization (Potter and Hunter [2000]).
structure (smiles),measurement,setting,value
"CC[C@H](C)[C@@H]1NC(=O)[C@H](CCCNC(=N)N)NC(=O)[C@H](CC(=O)O)NC(=O)[C@H](CC(C)C)NC(=O)[C@H](CCCCN)NC(=O)[C@H](CC(C)C)NC(=O)CNC(=O)[C@H](Cc2ccccc2)NC(=O)[C@@H](NC(=O)CNC(=O)[C@H](CCCCN)NC(=O)[C@H](CO)NC(=O)[C@H](CC(C)C)NC(=O)CN)CSSC[C@@H](C(=O)O)NC(=O)CNC(=O)[C@H](CC(C)C)NC(=O)CNC(=O)[C@H](CO)NC(=O)[C@H](CCSC)NC(=O)[C@H](CO)NC(=O)CNC1=O [CNP, C-type natriuretic peptide]",rate of cGMP accumulation from 5 to 15 min (desensitization),[1],underwent desensitization as shown by the failure to maintain the initial rate of cGMP accumulation
same,"total cGMP accumulation, 0 min","[2]; 0 min (start of time-course), mean ± SEM",6.4 ± 0.7 pmol/ml per milligram protein
same,rate of cGMP accumulation between 5 to 15 min as % of the initial rate (0 to 5 min),[2]; ***P < 0.001,22.2 ± 3.9%
same,"total cGMP accumulation, 5 min","[2]; 5 min, mean ± SEM",82.7 ± 15.5 pmol/ml per milligram protein
same,"total cGMP accumulation, 15 min","[2]; 15 min, mean ± SEM",117.4 ± 17.6 pmol/ml per milligram protein
same,agonist-induced internalization,[3],does not appear to cause agonist-induced internalization
